US10010619B2, “Bipartite inhibitors of bacterial RNA polymerase” (priority 2011, dated 2018)
Converted amounts (≈) assume the structure as drawn. Where two headings read alike, the source gives them in different places.

Columns and labels:
[1] = target: T1, rifamycin-resistant Escherichia coli RNAP derivative ([Asn516]β-RNAP) (Escherichia coli, UniProt P0A8V2, D516N); test: Fluorescence-detected RNA polymerase assay, rifamycin-resistant RNAP derivative; format: biochemical
T1 construct: made in house
Protocol: (§1) Fluorescence-detected RNA polymerase assays with E. coli RNA polymerase were performed by a modification of the procedure of Kuhlman et al., 2004 [Kuhlman, P., Duff, H. and Galant, A. (2004) A fluorescence-based assay for multisubunit DNA-dependent RNA polymerases. Anal. Biochem. 324, 183-190]. Reaction mixtures contained (20 μl): 0-100 nM test compound, 75 nM Escherichia coli RNA polymerase σ^70 holoenzyme or Escherichia coli RNA polymerase σ^70 holoenzyme derivative (prepared as in Feklistov, A., Mekler, V., Jiang, Q., Westblade, L., Irschik, H., Jansen, R., Mustaev, A., Darst, S., and Ebright, R. (2008) Proc. Natl. Acad. Sci. USA 105, 14820-14825), 20 nM 384 bp DNA fragment containing the bacteriophage […] N25 promoter, 100 μM ATP, 100 μM GTP, 100 μM UTP, 100 μM CTP, 50 mM Tris-HCl, pH 8.0, 100 mM KCl, 10 mM MgCl2, 1 mM DTT, 10 μg/ml bovine serum albumin, and 5.5% glycerol. Reaction components other than DNA and NTPs were pre-incubated for 10 min at 37° C. Reactions were carried out by addition of DNA and incubation for 5 min at 37° C., followed by addition of NTPs and incubation for 60 min at 37° C. DNA was removed by addition of 1 μl 5 mM CaCl2 and 2 U DNaseI (Ambion, Inc.), followed by incubation for 90 min at 37° C. RNA was quantified by addition of 100 μl RiboGreen RNA Quantitation Reagent (Invitrogen, Inc.; 1:500 dilution in Tris-HCl, pH 8.0, 1 mM EDTA), followed by incubation for 10 min at 25° C., followed by measurement of fluorescence intensity [excitation wavelength=485 nm and emission wavelength=535 nm; QuantaMaster QM1 spectrofluorimeter (PTI, Inc.)]. IC50 is defined as the concentration of inhibitor resulting in 50% inhibition of RNA polymerase activity.

[2] = test system: Staphylococcus aureus ATCC 12600; test: Broth microdilution MIC, S. aureus; format: cell-based; details: ATCC12600
Text: (§2) Minimum inhibitory concentrations (MICs) for Staphylococcus aureus ATCC 12600, Enterococcus faecalis ATCC 19433, Acinetobacter baumannii ATCC 19606, and Escherichia coli D21f2tolc (Fralick, J. and Burns-Keliher, L. (1994) J. Bacteriol. 176, 6404-6406) were quantified using broth microdilution assays as described [Clinical and Laboratory Standards Institute (CLSI/NCCLS) (2009) Methods for Dilution Antimicrobial Susceptibility Tests for Bacteria That Grow Aerobically; Approved Standard, Eighth Edition. CM Document M07-A8 (CLIS, Wayne Pa.)].

[3] = test system: Enterococcus faecalis ATCC 19433; test: Broth microdilution MIC, E. faecalis; format: cell-based; details: ATCC19433
Text: as §2

[4] = test system: Acinetobacter baumannii ATCC 19606; test: Broth microdilution MIC, A. baumannii; format: cell-based; details: ATCC19606
Text: as §2

[5] = target: T2, GE23077-resistant Escherichia coli RNAP derivative ([Asp565]β-RNAP) (Escherichia coli, UniProt P0A8V2, E565D); test: biochemical
T2 construct: made in house
Protocol: as §1, with “Reactions were carried out by addition of DNA and incubation for 5 min at 37° C., followed by addition of NTPs and incubation for 60 min at 37° C. DNA was removed by addition of 1 μl 5 mM CaCl2 and 2 U DNaseI (Ambion, Inc.), followed by incubation for 90 min at 37° C.” left out, “IC50 is defined as the concentration of inhibitor resulting in 50% inhibition of RNA polymerase activity.” left out

[6] = test system: Escherichia coli D21f2tolC; test: Broth microdilution MIC, E. coli D21f2tolC; format: cell-based
Text: as §2

Row | Compound | IC50 ([1]; read-out: IC50, rifamycin-resistant derivative of Escherichia coli RNAP [Asn516]β RNAP) | MIC [2] | MIC [3] | MIC [4] | IC50 [1] | potency relative to rifamycin SV on [Asn516]β RNAP ([1]; ratio of IC50s, times higher than rifamycin SV) | IC50 [5] | potency relative to GE23077 on [Asp565]β RNAP ([5]; ratio of IC50s, times higher than GE23077) | MIC [6]
1 | CO[C@H]1/C=C/O[C@@]2(C)Oc3c(C)c(O)c4c(O)c(cc(O)c4c3C2=O)NC(=O)/C(C)=C\C=C\[C@H](C)[C@H](O)[C@@H](C)[C@@H](O)[C@@H](C)[C@H](OC(C)=O)[C@@H]1C [rifamycin SV, reference compound] | 12 µM |  |  |  |  |  |  |  | 
2 | CO[C@H]1/C=C/O[C@@]2(C)Oc3c(C)c(O)c4c(O)c(c(NC(C)C(C)C(=O)NCC5NC(=O)CNC(=O)C(O)CNC(=O)C(C(C)O)NC(=O)C(C(O)C(O)C(N)=O)NC(=O)C(C(C)C)CC(=O)C(CO)NC5=O)c(O)c4c3C2=O)NC(=O)/C(C)=C\C=C\[C@H](C)C(O)C(C)[C@@H](O)[C@@H](C)[C@H](OC(C)=O)[C@@H]1C (stereo partly drawn) [compound 3, {rifamycin SV}-NH-{descarboxy-GE23077}] |  | 0.05 mg/L (≈ 0.034 µM) | 6 mg/L (≈ 4.08 µM) | 10 mg/L (≈ 6.8 µM) | 0.15 µM | 80 times | 0.02 µM | > 5,000 times | 2 mg/L (≈ 1.36 µM)
